Laboratory results from patent US6989397B1, “Iron chelators and uses thereof” (University of Queensland, priority 1999, dated 2006).
“And” between values parts separate entries of the source, which are not always exact repeats. Equal entries are not always repeated. Where two headings read alike, the source gives them in different places. Values belong to the compound of their own block, whether it stands above or below them.

How the values were obtained:
[1] = test system: SK-N-MC neuroepithelioma cells; test: internalized 59Fe uptake from 59Fe-transferrin; type: cell-based, human; conditions: SK-N-MC; 3 hrs at 37° C.; chelators 50 μM, DFO 100 μM; FIG. 2B screening experiment
Protocol: The effect of chelators on ^59Fe uptake from ^59Fe-Tf and ^59Fe release from prelabelled cells was studied using standard procedures reported previously (Richardson et al., 1994, J. Lab Clin. Med. 124 660-71). The amount of ^59Fe internalized by the cells was measured by incubation with the general protease pronase (1 mg/ml) for 30 min at 4° C. to remove membrane-bound ^59Fe and Tf (Richardson et al., 1990; Baker et al., 1998, Biochim. Biophys. Acta 1380 21-30). […] To determine the ability of the chelators to inhibit ^59Fe uptake from ^59Fe-Tf (0.75 μM). […] Table 2. The effect of DFO, 311, […], or PCBHH on internalized ^59Fe uptake from ^59Fe-transferrin by BE-2 neuroblastoma cells, SK-N-MC neuroepithelioma cells, and SK-Mel-28 melanoma cells. Cells were incubated with the chelators and ^59Fe-transferrin (0.75 μM) for 3 h at 37° C., washed, and incubated for 30 min at 4° C. with pronase (1 mg/ml) to separate the internalized from the membrane-bound ^59Fe. All chelators were screened at a concentration of 50 μM except for DFO which was examined at 100 μM. Results are mean±SD (three determinations) from a typical experiment.

[2] = test system: 59Fe-loaded reticulocytes; test: mobilisation of 59Fe from 59Fe-loaded reticulocytes (mitochondrial Fe overload model); type: cell-based, rabbit; conditions: for cellular 59Fe mobilized from 59Fe-loaded reticulocytes after 240 min: chelators 200 μM, 240 min of incubation; for cellular 59Fe released from 59Fe-loaded reticulocytes, 1 h reincubation (FIG. 9): chelator concentration 200 μM (range 10–200 μM), reincubated 1 h at 37° C.
Protocol: (§1) FIG. 7. The effect of reincubation time with the Fe chelators on ^59Fe mobilization from ^59Fe-loaded reticulocytes. The cells were labelled with ^59Fe-transferrin (3.75 μM) in the presence of the heme synthesis inhibitor, succinylacetone (1 mM), and incubated with the cells for 1 h at 37° C. The ^59Fe-labelled reticulocytes were then incubated with the chelators (200 μM) for 15–240 min at 37° C. The results are Mean±SD (3 determinations) in a typical experiment of three performed.
as §1, with “9.” for “7.”, “chelator concentration” for “reincubation time with the Fe chelators”, “(10–200” for “(200”
Reticulocytosis was induced by standard procedures (Richardson, D. R., Ponka, P and Vyoral, D (1996) Blood 87, 3477–3488) in New Zealand white rabbits by repeated phlebotomy by cardiac puncture using a protocol approved by the McGill University Animal Care Committee. Reticulocytes were identified based on staining with new methylene blue, and cell counts were determined using an improved Neubauer counting chamber.
Reticulocytes were obtained from chronically bled rabbits as described above and were incubated with 1 mM succinylacetone (SA: Sigma) to inhibit heme synthesis. After a 15 min preincubation in the presence of SA, ^59Fe-Tf ([…]) was added and incubated with the cells for 1 H at 37° C. with shaking. After this incubation the reticulocytes were washed three times with ice-cold PBS to remove non-specifically bound ^59Fe-Tf. The washed ^59Fe-labelled reticulocytes (30–35 μL) were incubated in buffered salt solution (250 μL final volume) with the apochelators. The SA was present in all incubations with the chelators to prevent the utilization of non-heme ^59Fe for heme synthesis. After the incubation, ^59Fe was measured both in washed reticulocytes and in the medium, and the percentage of ^59Fe mobilized from the reticulocytes was then calculated.

[3] = test system: iron-regulatory proteins (IRPs); test: iron regulatory protein gel-retardation assay (IRP-RNA binding activity); type: cell-based, human; conditions: SK-N-MC cells, 20 hr incubation; chelators 25 μM, DFO 100 μM, FAC 100 μg/ml
Protocol: FIG. 5. The effect of the chelators on the RNA-binding activity of the iron-regulatory proteins (IRPs) in the SK-N-MC neuroepithelioma cells. Cells were incubated for 20 h with either medium alone (control), ferric ammonium citrate (FAC: 100 μg/ml), DFO (100 μM), or the other chelators (25 μM).
A gel-retardation assay was used to measure the interaction between the IRPs and IRE using established techniques (Leibold et al., […]. Proc. Natl. Acad. Sci. USA 85 2171–5; Müllner et al., 1989 Cell 58 373–82). Briefly, after incubation with medium alone (control) or medium containing ferric ammonium citrate (100 μg/ml: Aldrich Ltd., Sydney, Australia) or the chelator. […] cells were washed with ice-cold phosphate-buffered saline (PBS) and lysed at 4° C. in 40 μl of ice-cold Munro extraction buffer (10 mM HEPES, pH 7.6, 3 mM MgCl2, 40 mM KCl, 5% glycerol, 1 MM dithiothreitol and 0.5% Nonidet P-40). After lysis, the samples were then centrifuged at 10,000 rpm for 3 mins at 4° C. to remove nuclei and the supernatant stored at −70° C. Frozen cytoplasmic extracts were thawed on ice and then centrifuged at 15,000 rpm for 10 min at 4° C. The protein concentration of the soluble supernatant was determined using the BioRad protein assay (BioRad Ltd., USA). Samples of cytoplasmic extracts were diluted to a protein concentration of 100 μg/ml in Munro buffer without Nonidet P-40 and 1 μg aliquots were analyzed for IRP by incubation with 0.1 ng (approximately 1×10^5 cpm) of ^32P-labelled pGL66 RNA transcript (Leibold et al., 1988). The riboprobe was transcribed in vitro from linearized plasmid templates using SP6 RNA polymerase in the presence of α-^32P UTP (Dupont, NEN). This latter reaction was performed using the Promega Riboprobe In Vitro Transcription Kit (Promega, Madison, Wis., USA). The probe was subsequently purified on a 6% urea/PAGE gel. To form RNA-protein complexes, cytoplasmic extracts containing 1 μg of protein were incubated for 10 mins at room temperature with the ^32P-labelled riboprobe. Unprotected probe was degraded by incubation with 1 U of RNAse T1 for 10 mins at room temperature. Heparin (Sigma) at a final concentration of 5 mg/ml was then added and incubated with the extract for another 10 min at room temperature to exclude non-specific binding. RNA-protein complexes were analyzed in 6% non-denaturing polyacrylamide gels at 4° C. as described by Konarska et al., 1986, Cell 46 845–55. Gels were dried, covered in plastic film and exposed to Kodak XAR films at −70° C. with an intensifying screen.
An important effect of intracellular Fe depletion using DFO is the activation of RNA-binding activity of the iron regulatory proteins (IRP's) (Hentze et al., 1996, Proc. Natl. Acad. Sci. USA 93 8175–82). […] The present inventors examined the effect of a 20 hr incubation with 311, PIH and the PCIH analogues (25 μM) on IRP-RNA binding activity in SK-N-MC cells. In all experiments, DFO (100 μM) was used as a positive control to deplete cells of Fe and increase IRP-RNA binding activity. In contrast, ferric ammonium citrate (FAC: 100 μg/ml) was used to donate Fe to cells and reduce IRP-RNA binding.

[4] = test system: SK-N-MC neuroepithelioma cells; test: 59Fe release from prelabelled cells (iron efflux); type: cell-based, human; conditions: 3 hr labelling, 3 hr reincubation, ligands 50 μM, DFO 100 μM, FIG. 2A screening experiment
Protocol: The effect of chelators on ^59Fe uptake from ^59Fe-Tf and ^59Fe release from prelabelled cells was studied using standard procedures reported previously (Richardson et al., 1994, J. Lab Clin. Med. 124 660–71). The amount of ^59Fe internalized by the cells was measured by incubation with the general protease pronase (1 mg/ml) for 30 min at 4° C. to remove membrane-bound ^59Fe and Tf (Richardson et al., 1990; Baker et al., 1998, Biochim. Biophys. Acta 1380 21–30).
The efflux of ^59Fe from SK-N-MC cells was examined after a 3 hr labelling period with ^59Fe-Tf (0.75 μM) followed by a 3 hr reincubation in the presence and absence of DFO (100 μM) or the remainder of the ligands at 50 μM (FIG. 2A).
Table 1. The effect of DFO, 311, PCTH, PCBH, or PCBHH on ^59Fe release from BE-2 neuroblastoma cells, SK-N-MC neuroepithelioma cells, and SK-Mel-28 melanoma cells. Cells were labeled for 3 h at 37° C. with ^59Fe-transferrin (0.75 μM), washed, and then reincubated with the chelators for 3 h at 37° C. […] Results are Mean±SD of three determinations in a typical experiment.

aqueous solubility = type: physicochemical; conditions: water / aqueous solutions
[5] = test system: iron-regulatory proteins (IRPs); test: iron regulatory protein gel-retardation assay (IRP-RNA binding activity); type: cell-based, human
[6] = test system: SK-N-MC neuroepithelioma cells; test: 3H-thymidine, 3H-leucine or 3H-uridine incorporation; type: cell-based, human; conditions: 20 hr with chelators 50 μM, DFO 100 μM, then label 2 h, Mean±SD
Protocol: Labelling of cells with ^3H-thymidine (20 Ci/mmol: Dupont NEN, MA, U.S.A.), ^3H-uridine (42.7 Ci/mmol/Dupont NEN, MA, U.S.A.) and ^3H-leucine (52 Ci/mmol: Dupont NEN) was estimated after precipitation with trichloroacetic acid (TCA). After a 20 hr incubation with the chelators, ^3H-leucine, ^3H-uridine or ^3H-thymidine (1 μCi/ml) were then added for 2 hrs at 37° C. Subsequently, petri dishes containing cell cultures were placed on ice and washed four times with ice-cold Hanks' balanced salt solution (BSS) and the cells detached from the plate using 1 mM EDTA in Ca/Mg-free saline. The cells were then pelleted by centrifugation, the supernatant removed and the pellet frozen at −70° C. After thawing the cells on ice, 1 ml of ice-cold 20% TCA was added and the solution then vortexed and kept on ice for 1 hr with periodic mixing. This solution was then centrifuged at 15,000 rpm for 15 mins at 4° C. and the supernatant removed. The pellet was then washed twice with 1 ml of ice-cold 10% TCA. The pellet was dissolved in 0.5 ml of 1 M NaOH and transferred to scintillation tubes with 3 ml of scintillant. Radioactivity was measured on a β-scintillation counter (LKB Wallace, Finland).
Table 3. The effect of the chelators on ^3H-thymidine, ^3H-leucine, or ^3H-uridine incorporation into SK-N-MC neuroepithelioma cells. Cells were incubated for 20 hr at 37° C. with either DFO (100 μM) or the other chelators (50 μM). Following this, either ^3H-thymidine, ^3H-leucine, or ^3H-uridine (1 μCi/mL) were added and the cells incubated for an additional 2 h at 37° C. (see Methods for details). Results are Mean±SD (4–5 determinations) from a typical experiment of 2–4 experiments performed.

[7] = Fe-overloaded patients (Olivieri et al.); cited from earlier work

IRP-RNA binding activity compared to the control (FIG. 5) [3]: decreased
Compound: Nc1ccc(C(=O)NN=Cc2ccccn2)cc1 [PCAH, 2-pyridylcarboxaldehyde p-aminobenzoyl hydrazone]
59Fe uptake from 59Fe-Tf, % of the control value (FIG. 2B) [1]: no effect
cellular 59Fe mobilized from 59Fe-loaded reticulocytes after 240 min ([2]; FIG. 7): 15%
release of cellular 59Fe (FIG. 2A) [4]: did not appreciably increase

IRP-RNA binding activity compared to the control (FIG. 5) [3]: decreased
Compound: O=C(NN=Cc1ccccn1)c1ccc(O)cc1 [PCHH, 2-pyridylcarboxaldehyde p-hydroxybenzoyl hydrazone]
59Fe uptake from 59Fe-Tf, % of the control value (FIG. 2B) [1]: no effect
cellular 59Fe released from 59Fe-loaded reticulocytes, 1 h reincubation (FIG. 9) ([2]; 3 determinations): very low activity
cellular 59Fe mobilized from 59Fe-loaded reticulocytes after 240 min ([2]; FIG. 7): 6%
release of cellular 59Fe (FIG. 2A) [4]: did not appreciably increase

IRP-RNA binding activity compared to the control (FIG. 5) [3]: little effect
Compound: O=C(NN=Cc1ccccn1)c1ccncc1 [PCIH, 2-pyridylcarboxaldehyde isonicotinoyl hydrazone]
59Fe uptake from 59Fe-Tf, % of the control value (FIG. 2B) [1]: slightly more effective than DFO
cellular 59Fe mobilized from 59Fe-loaded reticulocytes after 15 min ([2]; chelator 200 μM, 15 min incubation, 37° C., FIG. 7, 3 determinations): 21±1%
cellular 59Fe released from 59Fe-loaded reticulocytes, 1 h reincubation (FIG. 9) ([2]; 3 determinations): 31±1%
cellular 59Fe release from reticulocytes as a function of incubation time (FIG. 7), rank in words ([2]; eight compounds, 200 μM, reincubated up to 240 min): most effective

aqueous solubility, in words (aqueous solubility): most soluble
Compound: Cl.Cl.O=C(NN=Cc1ccccn1)c1ccncc1 [PCIH-2HCl]

Second part, the compound before the results:

Compound: Cl.O=C(NN=Cc1ccccn1)c1cccs1 [PCTH-HCl]
aqueous solubility, in words (aqueous solubility): lowest aqueous solubility of the series

Compound: Cc1ncc(CO)c(C=NNC(=O)c2ccncc2)c1O [PIH, pyridoxal isonicotinoyl hydrazone, reference compound]
IRP-RNA binding activity at higher concentrations ([5]; higher concentrations than 25 μM, not specified): did increase
cellular 59Fe released from 59Fe-loaded reticulocytes, 1 h reincubation (FIG. 9) ([2]; 3 determinations): 18±1%
IRP-RNA binding activity compared to the control (FIG. 5) [3]: little effect
3H-Leucine incorporation, % Control [6]: 84 ± 5 % Control
3H-Thymidine incorporation, % Control [6]: 52 % Control and 52 ± 9 % Control
3H-Uridine incorporation, % Control [6]: 56 ± 9 % Control

Compound: Cc1c(O)c(=O)ccn1C [deferiprone, 1,2-dimethyl-3-hydroxypyrid-4-one]
adverse outcome of treatment of patients [7]: hepatic fibrosis and an increase in liver Fe levels

Compound: ferric ammonium citrate [FAC]
IRP-RNA binding activity compared to the control (FIG. 5) [5]: appreciable decrease
